Reference: publication PMC6437697 (Journal of Medicinal Chemistry, 2019)

Columns and labels:
Experiment in all cases: KINOMEscan
Format in all cases: binding
Conditions in all cases: read-out: % control activity remaining
LZK = biological target: T1, LZK (Homo sapiens, UniProt O43283)
T1 construct: purchased Eurofins DiscoverX KINOMEscan
T1 sequence (O43283 1-966): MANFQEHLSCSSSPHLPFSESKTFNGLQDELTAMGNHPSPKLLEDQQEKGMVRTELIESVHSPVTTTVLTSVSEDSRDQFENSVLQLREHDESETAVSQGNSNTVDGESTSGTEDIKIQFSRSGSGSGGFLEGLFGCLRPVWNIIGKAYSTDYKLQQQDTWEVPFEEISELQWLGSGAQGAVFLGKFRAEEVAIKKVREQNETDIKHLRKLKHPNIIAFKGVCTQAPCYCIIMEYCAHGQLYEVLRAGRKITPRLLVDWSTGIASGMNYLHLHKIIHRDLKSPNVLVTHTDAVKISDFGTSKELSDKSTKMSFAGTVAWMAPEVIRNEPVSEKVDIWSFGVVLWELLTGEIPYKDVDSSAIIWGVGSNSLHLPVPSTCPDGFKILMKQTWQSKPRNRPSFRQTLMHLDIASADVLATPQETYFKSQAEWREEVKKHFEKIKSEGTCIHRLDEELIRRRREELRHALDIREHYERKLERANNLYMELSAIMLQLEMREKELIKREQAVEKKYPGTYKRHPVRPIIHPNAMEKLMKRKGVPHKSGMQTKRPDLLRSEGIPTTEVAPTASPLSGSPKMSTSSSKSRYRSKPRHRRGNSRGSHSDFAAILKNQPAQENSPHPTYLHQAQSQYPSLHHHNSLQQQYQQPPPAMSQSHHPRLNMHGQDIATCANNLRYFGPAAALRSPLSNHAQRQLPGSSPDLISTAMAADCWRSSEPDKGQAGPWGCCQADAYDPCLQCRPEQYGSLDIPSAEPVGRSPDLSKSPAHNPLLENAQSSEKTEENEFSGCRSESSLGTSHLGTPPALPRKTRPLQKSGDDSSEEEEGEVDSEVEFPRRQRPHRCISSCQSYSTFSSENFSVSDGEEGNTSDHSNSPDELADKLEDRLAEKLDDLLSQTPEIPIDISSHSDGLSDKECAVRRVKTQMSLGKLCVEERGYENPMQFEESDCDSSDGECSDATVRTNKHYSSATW

PIK3CB = biological target: T2, PIK3CB (Homo sapiens, UniProt P42338)
T2 construct: purchased Eurofins DiscoverX KINOMEscan
T2 sequence (P42338 whole entry): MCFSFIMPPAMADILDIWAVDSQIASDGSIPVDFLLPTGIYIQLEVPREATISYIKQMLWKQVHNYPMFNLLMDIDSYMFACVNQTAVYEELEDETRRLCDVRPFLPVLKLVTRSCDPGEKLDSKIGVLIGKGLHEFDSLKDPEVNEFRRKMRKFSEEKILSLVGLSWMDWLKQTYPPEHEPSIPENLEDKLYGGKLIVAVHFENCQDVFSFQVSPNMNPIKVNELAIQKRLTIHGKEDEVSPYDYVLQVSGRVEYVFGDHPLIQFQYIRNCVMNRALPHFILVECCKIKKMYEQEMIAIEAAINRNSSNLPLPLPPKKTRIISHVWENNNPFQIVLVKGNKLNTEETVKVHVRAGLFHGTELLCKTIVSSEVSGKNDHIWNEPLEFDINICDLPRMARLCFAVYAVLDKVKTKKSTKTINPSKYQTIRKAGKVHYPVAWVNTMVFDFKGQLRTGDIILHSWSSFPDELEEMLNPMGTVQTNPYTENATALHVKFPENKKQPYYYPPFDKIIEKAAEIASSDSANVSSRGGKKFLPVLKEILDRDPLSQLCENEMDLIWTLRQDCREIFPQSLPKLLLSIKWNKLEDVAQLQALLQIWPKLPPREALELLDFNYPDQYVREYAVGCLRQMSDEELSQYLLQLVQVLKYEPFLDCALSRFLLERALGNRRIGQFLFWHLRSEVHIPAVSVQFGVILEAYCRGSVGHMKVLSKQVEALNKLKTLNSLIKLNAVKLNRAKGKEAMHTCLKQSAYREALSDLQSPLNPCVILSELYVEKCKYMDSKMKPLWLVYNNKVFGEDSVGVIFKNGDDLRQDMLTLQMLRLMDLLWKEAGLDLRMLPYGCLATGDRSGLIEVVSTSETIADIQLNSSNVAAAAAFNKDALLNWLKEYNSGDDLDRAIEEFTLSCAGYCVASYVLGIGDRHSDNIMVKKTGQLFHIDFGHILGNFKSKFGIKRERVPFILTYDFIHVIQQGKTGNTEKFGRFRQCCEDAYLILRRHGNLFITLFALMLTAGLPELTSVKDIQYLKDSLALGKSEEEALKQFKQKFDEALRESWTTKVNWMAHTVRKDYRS

KIT(V559D,T670I) = biological target: T3, KIT(V559D,T670I) (Homo sapiens, UniProt P10721, T670I/V559D)
T3 construct: purchased Eurofins DiscoverX KINOMEscan
T3 sequence (P10721 26-976 V559D/T670I): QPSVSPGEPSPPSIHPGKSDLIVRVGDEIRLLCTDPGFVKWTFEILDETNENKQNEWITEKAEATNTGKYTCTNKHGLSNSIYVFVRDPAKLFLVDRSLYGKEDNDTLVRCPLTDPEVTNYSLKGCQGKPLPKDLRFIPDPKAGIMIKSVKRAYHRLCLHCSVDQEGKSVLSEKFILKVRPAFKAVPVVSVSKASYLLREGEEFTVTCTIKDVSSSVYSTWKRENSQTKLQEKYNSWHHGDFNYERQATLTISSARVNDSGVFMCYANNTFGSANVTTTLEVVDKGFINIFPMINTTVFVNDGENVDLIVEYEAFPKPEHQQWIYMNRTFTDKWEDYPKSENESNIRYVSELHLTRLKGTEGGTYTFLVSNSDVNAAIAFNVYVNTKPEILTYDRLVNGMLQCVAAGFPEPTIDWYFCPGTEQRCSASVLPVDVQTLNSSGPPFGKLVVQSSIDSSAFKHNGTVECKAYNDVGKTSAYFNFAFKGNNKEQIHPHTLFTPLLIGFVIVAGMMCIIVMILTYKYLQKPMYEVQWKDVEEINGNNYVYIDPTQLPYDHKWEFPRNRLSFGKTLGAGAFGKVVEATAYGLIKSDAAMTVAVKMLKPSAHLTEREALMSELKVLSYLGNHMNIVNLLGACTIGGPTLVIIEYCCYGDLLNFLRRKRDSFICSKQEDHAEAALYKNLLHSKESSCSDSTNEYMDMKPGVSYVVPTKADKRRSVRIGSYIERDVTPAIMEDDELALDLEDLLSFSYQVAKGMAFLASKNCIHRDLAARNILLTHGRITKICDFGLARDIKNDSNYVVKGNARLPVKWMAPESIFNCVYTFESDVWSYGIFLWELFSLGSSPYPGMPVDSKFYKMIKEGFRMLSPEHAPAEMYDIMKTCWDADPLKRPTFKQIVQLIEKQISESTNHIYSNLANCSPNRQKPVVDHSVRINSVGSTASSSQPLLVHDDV

CAMK2D = biological target: T4, CAMK2D (Homo sapiens, UniProt Q13557)
T4 construct: purchased Eurofins DiscoverX KINOMEscan

WEE2 = biological target: T5, WEE2 (Homo sapiens, UniProt P0C1S8)
T5 construct: purchased Eurofins DiscoverX KINOMEscan
T5 sequence (P0C1S8 whole entry): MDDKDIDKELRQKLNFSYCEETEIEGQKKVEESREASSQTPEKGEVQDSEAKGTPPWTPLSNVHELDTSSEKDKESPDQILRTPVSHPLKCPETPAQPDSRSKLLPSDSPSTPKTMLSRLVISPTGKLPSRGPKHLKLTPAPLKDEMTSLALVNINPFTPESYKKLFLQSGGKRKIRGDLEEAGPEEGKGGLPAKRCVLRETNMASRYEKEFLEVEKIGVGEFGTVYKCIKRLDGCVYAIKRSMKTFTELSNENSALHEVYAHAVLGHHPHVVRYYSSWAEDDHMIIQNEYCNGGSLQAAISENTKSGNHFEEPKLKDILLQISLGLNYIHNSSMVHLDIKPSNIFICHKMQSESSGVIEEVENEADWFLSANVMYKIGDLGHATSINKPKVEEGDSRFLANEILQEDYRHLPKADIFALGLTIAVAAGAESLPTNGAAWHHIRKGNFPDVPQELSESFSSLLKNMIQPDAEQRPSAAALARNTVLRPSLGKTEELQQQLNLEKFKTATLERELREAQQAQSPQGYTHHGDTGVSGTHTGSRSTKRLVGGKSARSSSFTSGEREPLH

STK39 = biological target: T6, STK39 (Homo sapiens, UniProt Q9UEW8)
T6 construct: purchased Eurofins DiscoverX KINOMEscan

BRK = biological target: T7, BRK (Homo sapiens, UniProt Q13882)
T7 construct: purchased Eurofins DiscoverX KINOMEscan
T7 sequence (Q13882 whole entry): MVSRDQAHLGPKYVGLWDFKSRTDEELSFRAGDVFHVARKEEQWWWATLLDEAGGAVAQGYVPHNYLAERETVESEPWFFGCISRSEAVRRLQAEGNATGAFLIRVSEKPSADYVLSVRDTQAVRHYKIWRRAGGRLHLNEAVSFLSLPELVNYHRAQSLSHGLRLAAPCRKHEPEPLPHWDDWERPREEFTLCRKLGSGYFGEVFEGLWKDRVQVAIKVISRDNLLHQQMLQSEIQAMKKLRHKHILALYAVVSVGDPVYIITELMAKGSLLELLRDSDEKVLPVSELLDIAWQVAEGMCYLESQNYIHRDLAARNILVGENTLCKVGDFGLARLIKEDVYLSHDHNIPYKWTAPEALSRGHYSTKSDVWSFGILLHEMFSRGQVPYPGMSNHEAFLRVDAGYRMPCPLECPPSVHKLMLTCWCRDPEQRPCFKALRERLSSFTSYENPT

MAP4K4 = biological target: T8, MAP4K4 (Homo sapiens, UniProt O95819)
T8 construct: purchased Eurofins DiscoverX KINOMEscan
T8 sequence (O95819 whole entry): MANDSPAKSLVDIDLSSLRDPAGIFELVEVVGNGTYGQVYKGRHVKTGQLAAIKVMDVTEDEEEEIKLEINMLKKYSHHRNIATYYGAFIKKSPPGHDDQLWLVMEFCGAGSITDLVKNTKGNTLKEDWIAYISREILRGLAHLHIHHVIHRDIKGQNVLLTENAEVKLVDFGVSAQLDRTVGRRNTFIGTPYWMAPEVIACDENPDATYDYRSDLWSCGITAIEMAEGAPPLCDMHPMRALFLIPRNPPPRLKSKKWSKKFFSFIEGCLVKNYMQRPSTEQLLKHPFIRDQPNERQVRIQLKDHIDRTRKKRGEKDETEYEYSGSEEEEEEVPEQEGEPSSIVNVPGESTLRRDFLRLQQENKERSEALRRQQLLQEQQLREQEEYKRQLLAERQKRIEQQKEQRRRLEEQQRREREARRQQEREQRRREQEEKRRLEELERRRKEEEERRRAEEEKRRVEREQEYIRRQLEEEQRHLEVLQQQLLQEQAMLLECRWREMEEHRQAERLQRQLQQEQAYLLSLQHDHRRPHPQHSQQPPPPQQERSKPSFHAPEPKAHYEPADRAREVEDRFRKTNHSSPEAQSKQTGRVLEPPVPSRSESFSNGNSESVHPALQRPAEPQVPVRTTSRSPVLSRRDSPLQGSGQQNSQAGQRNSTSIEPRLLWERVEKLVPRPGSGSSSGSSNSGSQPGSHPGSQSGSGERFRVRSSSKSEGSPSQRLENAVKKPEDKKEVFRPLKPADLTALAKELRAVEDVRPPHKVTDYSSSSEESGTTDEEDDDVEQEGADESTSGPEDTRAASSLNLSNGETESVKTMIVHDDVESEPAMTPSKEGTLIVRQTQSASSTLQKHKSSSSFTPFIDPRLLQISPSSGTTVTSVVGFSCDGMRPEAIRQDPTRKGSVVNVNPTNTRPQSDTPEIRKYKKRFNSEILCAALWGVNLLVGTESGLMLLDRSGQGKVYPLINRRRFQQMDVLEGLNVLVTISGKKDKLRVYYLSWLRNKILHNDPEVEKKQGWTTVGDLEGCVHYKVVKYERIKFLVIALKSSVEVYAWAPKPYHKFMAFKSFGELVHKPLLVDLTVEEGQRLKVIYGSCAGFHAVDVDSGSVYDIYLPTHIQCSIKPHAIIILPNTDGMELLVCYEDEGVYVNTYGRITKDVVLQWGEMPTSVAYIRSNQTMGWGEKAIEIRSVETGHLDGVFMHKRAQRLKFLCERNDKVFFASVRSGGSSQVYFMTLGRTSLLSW

ERK2 = biological target: T9, ERK2 (Homo sapiens, UniProt P28482)
T9 construct: purchased Eurofins DiscoverX KINOMEscan
T9 sequence (P28482 whole entry): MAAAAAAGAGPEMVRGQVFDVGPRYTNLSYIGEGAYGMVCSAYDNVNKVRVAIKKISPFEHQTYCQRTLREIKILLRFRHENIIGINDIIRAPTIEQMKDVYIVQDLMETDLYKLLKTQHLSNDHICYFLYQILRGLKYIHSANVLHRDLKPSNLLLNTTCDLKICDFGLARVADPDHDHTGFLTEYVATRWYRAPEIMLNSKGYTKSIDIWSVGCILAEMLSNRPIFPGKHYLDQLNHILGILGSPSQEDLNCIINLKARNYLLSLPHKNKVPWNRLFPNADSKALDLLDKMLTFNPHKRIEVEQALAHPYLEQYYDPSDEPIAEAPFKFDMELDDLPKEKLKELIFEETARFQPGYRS

ULK1 = biological target: T10, ULK1 (Homo sapiens, UniProt O75385)
T10 construct: purchased Eurofins DiscoverX KINOMEscan
T10 sequence (O75385 1-1050): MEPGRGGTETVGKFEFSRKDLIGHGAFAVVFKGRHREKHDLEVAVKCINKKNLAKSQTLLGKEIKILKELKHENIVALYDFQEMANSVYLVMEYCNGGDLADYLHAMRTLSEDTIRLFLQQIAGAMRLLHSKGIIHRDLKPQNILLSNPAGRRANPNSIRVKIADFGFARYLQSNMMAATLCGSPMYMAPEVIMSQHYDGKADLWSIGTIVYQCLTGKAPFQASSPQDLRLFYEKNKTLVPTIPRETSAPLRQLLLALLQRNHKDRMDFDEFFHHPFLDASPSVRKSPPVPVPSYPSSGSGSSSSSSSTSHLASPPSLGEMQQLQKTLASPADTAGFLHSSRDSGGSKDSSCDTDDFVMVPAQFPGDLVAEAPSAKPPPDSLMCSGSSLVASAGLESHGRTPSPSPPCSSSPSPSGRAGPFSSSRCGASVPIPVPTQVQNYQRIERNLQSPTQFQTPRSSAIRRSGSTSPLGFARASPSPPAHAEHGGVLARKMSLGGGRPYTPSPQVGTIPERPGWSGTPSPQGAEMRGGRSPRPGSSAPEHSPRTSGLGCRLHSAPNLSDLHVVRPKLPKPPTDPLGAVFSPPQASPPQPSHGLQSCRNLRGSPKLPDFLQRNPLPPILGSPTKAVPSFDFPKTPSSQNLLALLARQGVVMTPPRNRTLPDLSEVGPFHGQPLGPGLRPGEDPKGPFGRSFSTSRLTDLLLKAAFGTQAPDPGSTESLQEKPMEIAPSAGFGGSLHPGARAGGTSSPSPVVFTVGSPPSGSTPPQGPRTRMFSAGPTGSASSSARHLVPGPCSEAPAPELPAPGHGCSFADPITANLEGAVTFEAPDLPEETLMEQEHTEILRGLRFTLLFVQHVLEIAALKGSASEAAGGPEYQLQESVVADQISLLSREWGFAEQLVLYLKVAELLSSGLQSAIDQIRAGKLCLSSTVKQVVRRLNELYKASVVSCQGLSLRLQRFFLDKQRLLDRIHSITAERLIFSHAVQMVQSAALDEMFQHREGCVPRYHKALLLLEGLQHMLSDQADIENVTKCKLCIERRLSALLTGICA

| SMILES | remaining binding at 1 µM (LZK) [%] | remaining binding at 1 µM (PIK3CB) [%] | remaining binding at 1 µM (KIT(V559D,T670I)) [%] | remaining binding at 1 µM (CAMK2D) [%] | remaining binding at 1 µM (WEE2) [%] | remaining binding at 1 µM (STK39) [%] | remaining binding at 1 µM (BRK) [%] | remaining binding at 1 µM (MAP4K4) [%] | remaining binding at 1 µM (ERK2) [%] | remaining binding at 1 µM (ULK1) [%] |
| --- | --- | --- | --- | --- | --- | --- | --- | --- | --- | --- |
| Clc1cc(NCC2CC2)c2ncc(-c3ccc4[nH]ncc4c3)n2n1 [compound 2, 6-Chloro-N-(cyclopropylmethyl)-3-(1H-indazol-5-yl)imidazo[1,2-b]pyridazin-8-amine] | 100 | 82 | 20 | 97 | 94 | 88 | 87 | 92 | 92 | 78 |
| O=C(CN1CCOCC1)N[C@H]1CC[C@H](Nc2cc(Cl)nn3c(-c4ccc5[nH]ncc5c4)cnc23)CC1 [compound 26] | 100 | 93 | 0.85 | 62 | 87 | 89 | 85 | 75 | 93 | 97 |
| CN1CCC(CNc2cc(Cl)nn3c(-c4cc5nc(Nc6ccccc6)[nH]c5cc4F)cnc23)CC1 [compound 31, 6-Chloro-3-(6-fluoro-2-(phenylamino)-1H-benzo[d]imidazol-5-yl)-N-((1-methylpiperidin-4-yl)methyl)imidazo[1,2-b]pyridazin-8-amine] | 98 | 97 | 97 | 100 | 97 | 98 | 93 | 100 | 99 | 79 |
